Results from article PMC6719172, “Inhibition of CpLIP2 Lipase Hydrolytic Activity by Four Flavonols (Galangin, Kaempferol, Quercetin, Myricetin) Compared to Orlistat and Their Binding Mechanisms Studied by Quenching of Fluorescence” (Molecules, 2019).

Legend:
[1] = biological target: T1, CpLIP2 lipase (Candida parapsilosis, UniProt Q8NIN8); assay: Quenching of CpLIP2 intrinsic tryptophan fluorescence by flavonols (Stern–Volmer, Lehrer, van't Hoff analysis); type: binding; settings: for KSV (Stern–Volmer quenching constant): CpLIP2 2.5 µM, pH 7.0, flavonol 2.5–25 µM (GAL 2.5–17.5 µM); for Kq (bimolecular quenching constant): Kq = KSV/τ0, τ0 1.59 ns; for KSV (accessible), Stern–Volmer quenching constant of the exposed W residues / fa (fraction of accessible W residues to the quencher): Lehrer equation; for ΔG (free energy change): ΔG = ΔH − TΔS; for Kd: Kd (dissociation constant); for order of magnitude of Kq: all temperatures of Table 1; for ΔS (entropy changes): van't Hoff plot, 298–328 K
T1 sequence (Q8NIN8 entry or part of it): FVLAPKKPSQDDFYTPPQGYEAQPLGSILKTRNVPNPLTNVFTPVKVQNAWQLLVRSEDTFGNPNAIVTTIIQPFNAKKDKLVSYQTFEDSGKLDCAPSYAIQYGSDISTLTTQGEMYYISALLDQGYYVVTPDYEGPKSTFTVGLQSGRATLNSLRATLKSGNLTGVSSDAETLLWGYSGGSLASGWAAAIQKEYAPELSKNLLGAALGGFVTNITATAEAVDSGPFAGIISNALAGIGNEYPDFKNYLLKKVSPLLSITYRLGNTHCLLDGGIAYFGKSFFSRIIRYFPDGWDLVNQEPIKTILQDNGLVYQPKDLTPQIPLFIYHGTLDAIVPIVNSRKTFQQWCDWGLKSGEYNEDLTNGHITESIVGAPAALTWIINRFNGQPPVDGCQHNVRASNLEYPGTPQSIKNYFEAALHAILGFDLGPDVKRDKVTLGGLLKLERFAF
Excerpt: The fluorescence quenching spectra of CpLIP2 lipase submitted to increasing concentrations of GAL, KAE, QUE and MYR are shown in Figure 3. A remarkable quenching of the CpLIP2 fluorescence emission was observed. […] The fluorescence quenching is usually described by the linear Stern–Volmer Equations (2) and (3):(2) F0/F = 1 + Ksv [Q] = 1 + Kqτ0 [Q] (3) Kq=Ksv/τ0 where F0 and F are the intrinsic fluorescence intensities of CpLIP2 lipase (fluorophore) in absence or presence of quencher (flavonol), respectively. Kq is the bimolecular quenching constant, τ0 is the lifetime of the fluorophore in the absence of the quencher, [Q] is the concentration of the quencher, and KSV is the Stern–Volmer quenching constant.
The mechanism of quenching, occurring between CpLIP2 lipase and flavonols, was characterized by determining the values of Kq and the thermodynamic parameters by varying the temperature. […] In both cases, the bimolecular quenching constant Kq can be calculated by the ratio between KSV and τ0, itself determined at 1.59 ns for Human Pancreatic Lipase.
The inaccessible or buried residues are responsible for the remaining fluorescence, which is probably independent of the quencher concentration. […] An up-down curvature towards the x-axis has been shown for the four flavonols (Figure 4), indicating the presence of two populations of fluorophores, part of which would not be accessible. That means that some W residues are buried inside the lipase structure and that other residues are exposed to the solvent. Therefore, data were analyzed through the Lehrer equation, also known as the modified (or non-linear) Stern–Volmer Equation (4):(4) F0/ F0−F = 1/ fa Ksv 1/ [Q] +1/ fa
For static quenching, the equilibrium between free and bound CpLIP2 lipase, when the ligand molecules bind independently to equivalent sites of macromolecules, can be described by the following Equation (5):(5) log10F0−F/F=nlog10[Q]+log10Ka where Ka is the binding constant and n the number of binding sites per CpLIP2 molecule.
The results were determined for all flavonols tested at different temperatures from the plots of log10 F0 − F/F versus log10 [Q] and listed in Table 2. The plots show a linear relationship from which the slope equal to n and intercept on y-axis equal to log10 Ka. For the four flavonols, the Ka values increased when the temperatures increased. In addition, the n values were less than 1.0 in all cases and increased according to the temperature. […] Values of the dissociation constant of complexes were deduced from the Stern–Volmer Equation (6) and (7), for which Kd is expressed as the inverse of fa Ksv product. (6) F0/ F0−F= Kd 1/ [Q] +1 (7) Kd= 1/fa Ksv
Thermodynamic parameters were calculated to determine the type of binding forces that contribute in the CpLIP2 lipase–flavonol interactions. […] Both the enthalpy (ΔH) and entropy changes (ΔS) can be estimated from the following van′t Hoff Equation (8):(8) Ln Ka = − ΔH /RT + ΔS /R
The values of Gibbs binding free energy change (ΔG) are calculated from the following Equation (9):(9) ΔG= ΔH − TΔS
To fill up the volume of 300 µL by well, 190 µL of sodium phosphate buffer solution (75 mM, pH 7.0) was added to each well to obtain final concentration at 50 mM. Then, 100 µL of ethanol absolute–water ultrapure (2:8, v/v) solution was added to obtain a final amount of ethanol […] in the well of 300 µL. […] The final concentration of ethanol during the experiments never exceeded 0.07% (v/v). The last step was to add 10 µL of lipase after to have optimized the final concentration of CpLIP2 equal to 2.5 µM for all our assays, giving the optimal fluorescence intensity for all measurements. The measurement of intrinsic fluorescence started after mechanical shaking for 30 s inside the multi-plate reader. […]

[2] = biological target: T1, CpLIP2 lipase; assay: Fluorescence resonance energy transfer between CpLIP2 and flavonols (Förster theory); type: binding; settings: for E (energy transfer efficiency) / J (overlap integral) / R0 (Förster distance) / r (distance between acceptor and donor) / r/R0: 2.5 µM, 308 K, pH 7.0; as to R0 (Förster distance): values in Å; as to r (distance between acceptor and donor): values in Å
Excerpt: Fluorescence emission spectra of CpLIP2 lipase overlap the UV absorption spectrum of each flavonol studied, that may induce fluorescence resonance energy transfer (FRET) governed by the binding distance r between the protein behaving as energy donor and the flavonol energy acceptor. The binding distance r can be calculated via Förster theory with the following Equations (10) and (11):(10) E=1−F/ F0=R06/ R06+r^6 where E is the energy transfer efficiency, which is the photons fraction absorbed and transferred by the donor to the acceptor, F and F0 are the fluorescence intensities of donor (CpLIP2) in the presence or absence of acceptor (flavonol) at the same concentrations. The parameter r is the distance between acceptor and donor, and R0 is the Förster distance, which is the critical energy transfer distance when 50% of the excitation energy is transferred from the donor to the acceptor. […] The value of R0 ranges from 20–90 Å for biological macromolecules.

O=c1c(O)c(-c2cc(O)c(O)c(O)c2)oc2cc(O)cc(O)c12 [MYR, myricetin]
Ka (association constant) ([1]; 298 K): 45.21 ± 1 L/mol
n (number of binding sites) ([1]; 298 K): 0.43 ± 0.02
KSV (Stern–Volmer quenching constant) ([1]; 298 K): 1.6 ± 0.1 × 10^4 L·mol^−1
Kq (bimolecular quenching constant) ([1]; 298 K): 1e+13 M⁻¹ s⁻¹
KSV (accessible), Stern–Volmer quenching constant of the exposed W residues ([1]; 298 K): 290000 L/mol
fa (fraction of accessible W residues to the quencher) ([1]; 298 K): 0.34
ΔG (free energy change) ([1]; 298 K): -6.26 kcal/mol
Ka (association constant) ([1]; 308 K): 53.09 ± 2 L/mol
n (number of binding sites) ([1]; 308 K): 0.46 ± 0.03
KSV (Stern–Volmer quenching constant) ([1]; 308 K): 1.3 ± 0.5 × 10^4 L·mol^−1
Kq (bimolecular quenching constant) ([1]; 308 K): 8.2e+12 M⁻¹ s⁻¹
KSV (accessible), Stern–Volmer quenching constant of the exposed W residues ([1]; 308 K): 280000 L/mol
fa (fraction of accessible W residues to the quencher) ([1]; 308 K): 0.32
ΔG (free energy change) ([1]; 308 K): -6.45 kcal/mol
Ka (association constant) ([1]; 318 K): 44.79 ± 1 L/mol
n (number of binding sites) ([1]; 318 K): 0.44 ± 0.02
KSV (Stern–Volmer quenching constant) ([1]; 318 K): 1.2 ± 0.4 × 10^4 L·mol^−1
Kq (bimolecular quenching constant) ([1]; 318 K): 7.7e+12 M⁻¹ s⁻¹
KSV (accessible), Stern–Volmer quenching constant of the exposed W residues ([1]; 318 K): 320000 L/mol
fa (fraction of accessible W residues to the quencher) ([1]; 318 K): 0.30
ΔG (free energy change) ([1]; 318 K): -6.67 kcal/mol
Ka (association constant) ([1]; 328 K): 97.14 ± 2 L/mol
n (number of binding sites) ([1]; 328 K): 0.51 ± 0.09
KSV (Stern–Volmer quenching constant) ([1]; 328 K): 1.4 ± 0.5 × 10^4 L·mol^−1
Kq (bimolecular quenching constant) ([1]; 328 K): 9e+12 M⁻¹ s⁻¹
KSV (accessible), Stern–Volmer quenching constant of the exposed W residues ([1]; 328 K): 250000 L/mol
fa (fraction of accessible W residues to the quencher) ([1]; 328 K): 0.33
ΔG (free energy change) ([1]; 328 K): -6.88 kcal/mol
Kd ([1]; 298 K): 10 ± 1 µM
Kd ([1]; 308 K): 11 ± 4 µM
Kd ([1]; 318 K): 10 ± 4 µM
Kd ([1]; 328 K): 12 ± 7 µM
fa (fraction of accessible W residues) ([1]; across temperatures): 0.33
n (number of binding sites) ([1]; across temperatures): 0.43
order of magnitude of Kq [1]: ~10^13 L mol^−1 s^−1
ΔS (entropy changes) [1]: 0.10 kJ·mol^−1·K^−1
percentage of transfer efficiency [2]: 23%
E (energy transfer efficiency) [2]: 0.23
J (overlap integral) [2]: 15 × 10^14 nm^4·cm^−1·M^−1
R0 (Förster distance) [2]: 38.4 Å
r (distance between acceptor and donor) [2]: 46.7 Å
r/R0 [2]: 1.2

O=c1c(O)c(-c2ccc(O)c(O)c2)oc2cc(O)cc(O)c12 [QUE, quercetin]
Ka (association constant) ([1]; 298 K): 2034 ± 2 L/mol
n (number of binding sites) ([1]; 298 K): 0.78 ± 0.06
KSV (Stern–Volmer quenching constant) ([1]; 298 K): 1.8 ± 0.1 × 10^4 L·mol^−1
Kq (bimolecular quenching constant) ([1]; 298 K): 1.1e+13 M⁻¹ s⁻¹
KSV (accessible), Stern–Volmer quenching constant of the exposed W residues ([1]; 298 K): 70000 L/mol
fa (fraction of accessible W residues to the quencher) ([1]; 298 K): 0.54
ΔG (free energy change) ([1]; 298 K): -10.1 kcal/mol
Ka (association constant) ([1]; 308 K): 1824 ± 9 L/mol
n (number of binding sites) ([1]; 308 K): 0.77 ± 0.05
KSV (Stern–Volmer quenching constant) ([1]; 308 K): 1.6 ± 0.6 × 10^4 L·mol^−1
Kq (bimolecular quenching constant) ([1]; 308 K): 1e+13 M⁻¹ s⁻¹
KSV (accessible), Stern–Volmer quenching constant of the exposed W residues ([1]; 308 K): 80000 L/mol
fa (fraction of accessible W residues to the quencher) ([1]; 308 K): 0.52
ΔG (free energy change) ([1]; 308 K): -10.4 kcal/mol
Ka (association constant) ([1]; 318 K): 3041 ± 2 L/mol
n (number of binding sites) ([1]; 318 K): 0.81 ± 0.07
KSV (Stern–Volmer quenching constant) ([1]; 318 K): 1.6 ± 0.6 × 10^4 L·mol^−1
Kq (bimolecular quenching constant) ([1]; 318 K): 1e+13 M⁻¹ s⁻¹
KSV (accessible), Stern–Volmer quenching constant of the exposed W residues ([1]; 318 K): 70000 L/mol
fa (fraction of accessible W residues to the quencher) ([1]; 318 K): 0.55
ΔG (free energy change) ([1]; 318 K): -10.8 kcal/mol
Ka (association constant) ([1]; 328 K): 4616 ± 3 L/mol
n (number of binding sites) ([1]; 328 K): 0.85 ± 0.11
KSV (Stern–Volmer quenching constant) ([1]; 328 K): 2.0 ± 0.7 × 10^4 L·mol^−1
Kq (bimolecular quenching constant) ([1]; 328 K): 1.3e+13 M⁻¹ s⁻¹
KSV (accessible), Stern–Volmer quenching constant of the exposed W residues ([1]; 328 K): 50000 L/mol
fa (fraction of accessible W residues to the quencher) ([1]; 328 K): 0.69
ΔG (free energy change) ([1]; 328 K): -11.1 kcal/mol
Kd ([1]; 298 K): 27 ± 6 µM
Kd ([1]; 308 K): 24 ± 10 µM
Kd ([1]; 318 K): 25 ± 10 µM
Kd ([1]; 328 K): 31 ± 13 µM
fa (fraction of accessible W residues) ([1]; across temperatures): 0.55
order of magnitude of Kq [1]: ~10^13 L mol^−1 s^−1
ΔS (entropy changes) [1]: 0.14 kJ·mol^−1·K^−1
percentage of transfer efficiency [2]: 6%
E (energy transfer efficiency) [2]: 0.06
J (overlap integral) [2]: 12 × 10^14 nm^4·cm^−1·M^−1
R0 (Förster distance) [2]: 36.9 Å
r (distance between acceptor and donor) [2]: 58.7 Å
r/R0 [2]: 1.6
